# Experimental data from the supplement of paper PMC4862054.
# What was measured:
# Conditions in all cases: incubation time: 72 h
# BT-549 [1] = assay: normalised viability (% of control), CellTiter-Blue; higher = more viable cells (about 100 = DMSO control)
# Method in brief: (§1)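 Breast cancer cell lines in 20 µl suspension were seeded onto 384-well plates pre-loaded with compound dissolved in 5 µl medium, then incubated 72 h. CellTiter-Blue reagent (2.5 µl) was added for 2 h at 37 °C and fluorescence read at 560/590 nm. Each plate was normalised to vehicle (100) and a positive kill control (0), with Z'-factor quality control. The value is normalised viability at one listed concentration of the series.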
# DU-4475 [2] = assay: as above
# Method in brief: as §1
# HDQ-P1 [3] = assay: as above
# Method in brief: as §1
# CAL-85-1 [4] = assay: as above
# Method in brief: as §1
# CAL-51 [5] = assay: as above
# Method in brief: as §1
# MFM-223 = assay: as above
# Method in brief: as §1
# HCC1937 = assay: as above
# Method in brief: as §1
# BT-474 [6] = assay: as above
# Method in brief: as §1
# CAL-148 [7] = assay: as above
# Method in brief: as §1
# Hs578T [8] = assay: as above
# Method in brief: as §1
# BT-549 [9] = assay: drug sensitivity score (DSS), CellTox Green (DSS (AUC-based score)); higher = stronger drug effect (viability inhibition or cytotoxicity); extreme values may be limits of the assay
# Method in brief: (§2)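 Each compound occupied 5 concentrations in 10-fold steps over its own 10,000-fold range in 384-well plates, into which breast cancer cell lines were seeded as 20 µl suspension. Following 72 h of incubation, CellTox Green fluorescence (485/520 nm) was measured, and CellTiter-Glo luminescence was measured after 10 min at room temperature. Plates were individually normalised to 0.1 % DMSO and a positive kill control. From the area under the fitted dose-response curve, a drug sensitivity score was calculated.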
# DU-4475 [10] = assay: as above
# Method in brief: as §2
# HDQ-P1 [11] = assay: as above
# Method in brief: as §2
# CAL-85-1 [12] = assay: as above
# Method in brief: as §2
# CAL-51 [13] = assay: as above
# Method in brief: as §2
# MDA-MB-468 = assay: as above
# Method in brief: as §2
# MDA-MB-436 = assay: as above
# Method in brief: as §2
# MDA-MB-231 = assay: as above
# Method in brief: as §2
# CAL-120 = assay: as above
# Method in brief: as §2
# HCC1143 = assay: as above
# Method in brief: as §2
# BT-474 [14] = assay: as above
# Method in brief: as §2
# CAL-148 [15] = assay: as above
# Method in brief: as §2
# Hs578T [16] = assay: as above
# Method in brief: as §2
# MDA-MB-453 = assay: as above
# Method in brief: as §2
# HCC1599 = assay: as above
# Method in brief: as §2
smiles,measurement,setting,value
O=C(Cc1ccc(-c2ccc(OCCN3CCOCC3)cc2)cn1)NCc1ccccc1 [KX2-391],normalised viability,BT-549 [1]; 10 nM,95.5%
same,normalised viability,BT-549 [1]; 1000 nM,17.5%
same,normalised viability,BT-549 [1]; 10000 nM,20.7%
same,normalised viability,DU-4475 [2]; 3 nM,83.8%
same,normalised viability,DU-4475 [2]; 30 nM,80.5%
same,normalised viability,DU-4475 [2]; 100 nM,16.1%
same,normalised viability,HDQ-P1 [3]; 3 nM,112%
same,normalised viability,HDQ-P1 [3]; 30 nM,97.7%
same,normalised viability,HDQ-P1 [3]; 100 nM,43.2%
same,normalised viability,CAL-85-1 [4]; 3 nM,92.5%
same,normalised viability,CAL-85-1 [4]; 30 nM,65.1%
same,normalised viability,CAL-85-1 [4]; 100 nM,34.2%
same,normalised viability,CAL-51 [5]; 3 nM,114%
same,normalised viability,CAL-51 [5]; 30 nM,105%
same,normalised viability,CAL-51 [5]; 100 nM,20%
same,normalised viability,MFM-223; 10 nM,91.2%
same,normalised viability,MFM-223; 1000 nM,40.7%
same,normalised viability,MFM-223; 10000 nM,26.9%
same,normalised viability,HCC1937; 10 nM,108%
same,normalised viability,HCC1937; 1000 nM,16.9%
same,normalised viability,HCC1937; 10000 nM,15.9%
same,normalised viability,BT-474 [6]; 10 nM,114%
same,normalised viability,BT-474 [6]; 1000 nM,56%
same,normalised viability,BT-474 [6]; 10000 nM,66.7%
same,normalised viability,CAL-148 [7]; 3 nM,94.8%
same,normalised viability,CAL-148 [7]; 30 nM,91.3%
same,normalised viability,CAL-148 [7]; 100 nM,16.8%
same,normalised viability,Hs578T [8]; 10 nM,94.4%
same,normalised viability,Hs578T [8]; 1000 nM,15.4%
same,normalised viability,Hs578T [8]; 10000 nM,20.5%
same,drug sensitivity score,BT-549 [9],0
same,drug sensitivity score,DU-4475 [10],0
same,drug sensitivity score,HDQ-P1 [11],4.28
same,drug sensitivity score,CAL-85-1 [12],17.3
same,drug sensitivity score,CAL-51 [13],20.3
same,drug sensitivity score,MDA-MB-468,30.1
same,drug sensitivity score,MDA-MB-436,4.73
same,drug sensitivity score,MDA-MB-231,0
same,drug sensitivity score,CAL-120,1.54
same,drug sensitivity score,HCC1143,0
same,drug sensitivity score,BT-474 [14],3.97
same,drug sensitivity score,CAL-148 [15],0
same,drug sensitivity score,Hs578T [16],11.4
same,drug sensitivity score,MDA-MB-453,0
same,drug sensitivity score,HCC1599,3.99
CCCS(=O)(=O)Nc1ccc(F)c(C(=O)c2c[nH]c3ncc(-c4ccc(Cl)cc4)cc23)c1F [Vemurafenib],normalised viability,BT-549 [1]; 10 nM,96.4%
same,normalised viability,BT-549 [1]; 1000 nM,105%
same,normalised viability,BT-549 [1]; 10000 nM,57.3%
same,normalised viability,DU-4475 [2]; 3 nM,94.5%
same,normalised viability,DU-4475 [2]; 30 nM,85.1%
same,normalised viability,DU-4475 [2]; 100 nM,68.2%
same,normalised viability,HDQ-P1 [3]; 3 nM,92.9%
same,normalised viability,HDQ-P1 [3]; 30 nM,105%
same,normalised viability,HDQ-P1 [3]; 100 nM,106%
same,normalised viability,CAL-85-1 [4]; 3 nM,92.8%
same,normalised viability,CAL-85-1 [4]; 30 nM,84.6%
same,normalised viability,CAL-85-1 [4]; 100 nM,87.2%
same,normalised viability,CAL-51 [5]; 3 nM,102%
same,normalised viability,CAL-51 [5]; 30 nM,95.4%
same,normalised viability,CAL-51 [5]; 100 nM,92.9%
same,normalised viability,MFM-223; 10 nM,87.9%
same,normalised viability,MFM-223; 1000 nM,95.4%
same,normalised viability,MFM-223; 10000 nM,85.6%
same,normalised viability,HCC1937; 10 nM,109%
same,normalised viability,HCC1937; 1000 nM,101%
same,normalised viability,HCC1937; 10000 nM,67.7%
same,normalised viability,BT-474 [6]; 10 nM,106%
same,normalised viability,BT-474 [6]; 1000 nM,120%
same,normalised viability,BT-474 [6]; 10000 nM,107%
same,normalised viability,CAL-148 [7]; 3 nM,95.2%
same,normalised viability,CAL-148 [7]; 30 nM,97.3%
same,normalised viability,CAL-148 [7]; 100 nM,98.3%
same,normalised viability,Hs578T [8]; 10 nM,112%
same,normalised viability,Hs578T [8]; 1000 nM,129%
same,normalised viability,Hs578T [8]; 10000 nM,45.9%
same,drug sensitivity score,BT-549 [9],0
same,drug sensitivity score,DU-4475 [10],1.82
same,drug sensitivity score,HDQ-P1 [11],0
same,drug sensitivity score,CAL-85-1 [12],0
same,drug sensitivity score,CAL-51 [13],8.51
same,drug sensitivity score,MDA-MB-468,0
same,drug sensitivity score,MDA-MB-436,0
same,drug sensitivity score,MDA-MB-231,0.329
same,drug sensitivity score,CAL-120,0
same,drug sensitivity score,HCC1143,0
same,drug sensitivity score,BT-474 [14],0
same,drug sensitivity score,CAL-148 [15],0
same,drug sensitivity score,Hs578T [16],0
same,drug sensitivity score,MDA-MB-453,0
same,drug sensitivity score,HCC1599,0
